Experimental data reported in patent US8722731B2, “Furanyl compounds and the use thereof” (NovoMedix, LLC, priority 2010, dated 2014).

Experiments:
Pfeiffer = test: IC50 cell-based assay, suspension cells, Pfeiffer; conditions: Homo sapiens, Lymphoma, Diffuse large b-cell, read-out: IC50 of Compounds in Suspension Cell Types
[1] = Percent weight change of animals in MDA-MB-468 xenograft study; assay type: in vivo, Mouse/SCID; conditions: qd 20 mg/kg days 0 to 7, then qd 10 mg/kg day 8 and thereafter, IP, SCID mice
Method: (§1) In one embodiment, the effects of a compound provided herein on tumor growth in a mouse animal model were evaluated. In specific embodiments, the mouse animal model was the MDA-MB-468 xenograft model for breast cancer. Studies were performed to evaluate the effect of a compound provided herein on the growth of MDA-MB-468 breast tumors in mice. The test system that was used is summarized below:
(§2) Exemplary Protocol: Ten mice per group were inoculated s.c. on the left flank with 5×10^6 MDA-MB-468 cells. When tumors reached a mean volume of 100 or 200 mm^3, animals began treatment with a compound provided herein (See Table 4). Test article or vehicle were given once daily by IP injection for up to 21 days. Tumors were evaluated every Monday, Wednesday and Friday, body weights and condition were evaluated on a daily basis.
Animal Weight: All animals were weighed […] throughout the study. Group weight change was expressed as a daily group mean weight. Animals that lost greater than 20% of their total starting body weight were euthanized.
(§3) Compound 1 was dosed in mice at a dose of, for example, qd 50 mg/kg, for 22 days or more.
(§4) Compound 2 was dosed in mice at a dose of, for example, qd 20 mg/kg from day 0 to 7, then qd 10 mg/kg from day 8 and thereafter, for 22 days or more.

RT-4 = test: IC50 cell-based assay, adherent cells, RT-4; conditions: Homo sapiens, Bladder, papilloma, 72 hours, read-out: IC50 of Compounds in Adherent Cell Types
Summary of the method: (§5)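 Cells were seeded at 20,000 per well and dosed the next day with 2-fold serial dilutions (6 or 9 points) from 1000× DMSO stocks (top stock 30 mM; final dilution 1:1000), in triplicate. After 72 h at 37 °C, 5% CO2, a colorimetric proliferation reagent was read at 490 nm after 2-3 h.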

Caki-1 = test: IC50 cell-based assay, adherent cells, Caki-1; conditions: Homo sapiens, Kidney, clear cell carc., skin met, 72 hours, read-out: IC50 of Compounds in Adherent Cell Types
Summary of the method: as §5

HL-60 = test: IC50 cell-based assay, suspension cells, HL-60; conditions: Homo sapiens, Leukemia, AML, read-out: IC50 of Compounds in Suspension Cell Types
A549 = test: IC50 cell-based assay, adherent cells, A549; conditions: Homo sapiens, Lung, NSCLC, 72 hours, read-out: IC50 of Compounds in Adherent Cell Types
Summary of the method: as §5

1937 = test: IC50 cell-based assay, adherent cells, 1937; conditions: Breast, triple neg, 72 hours, read-out: IC50 of Compounds in Adherent Cell Types
Summary of the method: as §5

MCF-7 = test: IC50 cell-based assay, adherent cells, MCF-7; conditions: Homo sapiens, MCF7, Breast, ER+, 72 hours, read-out: IC50 of Compounds in Adherent Cell Types
Summary of the method: as §5

MDA-MB-468 breast tumors = test: Tumor growth inhibition in MDA-MB-468 mouse xenograft model for breast cancer (tumor volume); assay type: in vivo; conditions: qd 20 mg/kg days 0 to 7, then qd 10 mg/kg day 8 and thereafter, IP, SCID mice
Method: as §1, §2
Cell Culture: MDA-MB-468 breast cancer cells were grown in Liebowitz's L-15 with 10% fetal bovine serum and 1% pen/strep. Cells were routinely trypsinized and passaged 1:4. On the day of implantation, cells were washed in PBS, trypsinized and resuspended in complete media. Cells were washed 3× in serum free media (centrifuged 1000 rpm for 5 min). Cells were resuspended to a density of 1×10^8 cells/mL and diluted 1:1 with Matrigel. Cells were implanted s.c. using a 23 G needle in a volume of 0.1 mL.
Tumor Measurement: Tumors were monitored daily. If, during a daily evaluation, an animal's tumor appeared to have exceeded 1500 mm^3, the tumor was measured; and animals with tumors greater than 1500 mm^3 and/or that had become necrotic and/or hindered movement were euthanized. Tumors were measured twice weekly by measuring each tumor in 2 dimensions, along the largest dimension (length, L) and perpendicular to this dimension (width, W). Tumor weights were calculated using the standard formula: (L×W^2)/2. The mean tumor weight and standard error of the mean were calculated for each group at each time point. An ANOVA was used to compare differences of primary tumor volume.
as §3, §4

## O=C(Nc1cc(C(F)(F)F)cc(C(F)(F)F)c1)c1cc(-c2ccc(Cl)cc2)oc1C(F)(F)F [Compound 2, 5-(4-Chlorophenyl)-N-(3,5-bistrifluoromethylphenyl)-2-trifluoromethylfuran-3-carboxamide]
Pfeiffer
  IC50: < 5 µM
[1]; Day 1
  Percent Weight Change of Control and Treated Animals, mean: 0.00%
[1]; Day 2
  Percent Weight Change of Control and Treated Animals, mean: −1.11%
[1]; Day 3
  Percent Weight Change of Control and Treated Animals, mean: −2.65%
[1]; Day 4
  Percent Weight Change of Control and Treated Animals, mean: −3.35%
[1]; Day 5
  Percent Weight Change of Control and Treated Animals, mean: −3.84%
[1]; Day 6
  Percent Weight Change of Control and Treated Animals, mean: −1.98%
[1]; Day 7
  Percent Weight Change of Control and Treated Animals, mean: −3.25%
[1]; Day 8
  Percent Weight Change of Control and Treated Animals, mean: −5.29%
[1]; Day 9
  Percent Weight Change of Control and Treated Animals, mean: −3.91%
[1]; Day 10
  Percent Weight Change of Control and Treated Animals, mean: −6.29%
[1]; Day 11
  Percent Weight Change of Control and Treated Animals, mean: −3.98%
[1]; Day 12
  Percent Weight Change of Control and Treated Animals, mean: −1.48%
[1]; Day 13
  Percent Weight Change of Control and Treated Animals, mean: −1.39%
[1]; Day 14
  Percent Weight Change of Control and Treated Animals, mean: −2.75%
[1]; Day 15
  Percent Weight Change of Control and Treated Animals, mean: −0.49%
[1]; Day 16
  Percent Weight Change of Control and Treated Animals, mean: −1.04%
[1]; Day 17
  Percent Weight Change of Control and Treated Animals, mean: −0.16%
[1]; Day 18
  Percent Weight Change of Control and Treated Animals, mean: 0.96%
[1]; Day 19
  Percent Weight Change of Control and Treated Animals, mean: −0.20%
[1]; Day 20
  Percent Weight Change of Control and Treated Animals, mean: −1.98%
[1]; Day 21
  Percent Weight Change of Control and Treated Animals, mean: −0.19%
[1]; Day 22
  Percent Weight Change of Control and Treated Animals, mean: −0.65%
RT-4
  IC50: > 20 µM
Caki-1
  IC50: 5 to 10 µM
HL-60
  IC50: < 5 µM
A549
  IC50: 5 to 10 µM
1937
  IC50: < 5 µM
MCF-7
  IC50: 5 to 10 µM
MDA-MB-468 breast tumors; Day 1
  Tumor Volumes in Control and Treated Animals, mean: 119.09 mm^3
MDA-MB-468 breast tumors; Day 3
  Tumor Volumes in Control and Treated Animals, mean: 103.39 mm^3
MDA-MB-468 breast tumors; Day 5
  Tumor Volumes in Control and Treated Animals, mean: 119.30 mm^3
MDA-MB-468 breast tumors; Day 8
  Tumor Volumes in Control and Treated Animals, mean: 139.19 mm^3
MDA-MB-468 breast tumors; Day 10
  Tumor Volumes in Control and Treated Animals, mean: 181.97 mm^3
MDA-MB-468 breast tumors; Day 12
  Tumor Volumes in Control and Treated Animals, mean: 234.51 mm^3
MDA-MB-468 breast tumors; Day 15
  Tumor Volumes in Control and Treated Animals, mean: 276.34 mm^3
MDA-MB-468 breast tumors; Day 17
  Tumor Volumes in Control and Treated Animals, mean: 311.15 mm^3
MDA-MB-468 breast tumors; Day 19
  Tumor Volumes in Control and Treated Animals, mean: 318.18 mm^3
MDA-MB-468 breast tumors; Day 22
  Tumor Volumes in Control and Treated Animals, mean: 356.43 mm^3
